Target: T1, GTPase KRas [1-169,G12C,C118A] (Homo sapiens, UniProt P01116, C118A/G12C)
T1 construct: 1-169
T1 sequence (P01116 1-169 G12C/C118A): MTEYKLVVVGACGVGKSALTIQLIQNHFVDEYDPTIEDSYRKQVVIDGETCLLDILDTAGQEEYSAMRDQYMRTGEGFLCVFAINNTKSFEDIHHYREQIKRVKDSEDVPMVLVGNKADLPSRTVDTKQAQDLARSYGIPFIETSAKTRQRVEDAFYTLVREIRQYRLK

C=CC(=O)N1CC2(CCN(c3nc4c(c(N[C@@H](CC(C)C)Cn5ccnn5)n3)CCC(C)(C)C4)C2)C1 [WO2022093856, Example 1-47]
IC50: 822 nM
